Measurements taken from ChEMBL document CHEMBL6134813, “Arctigenin derivative TZOA restores mitochondrial homeostasis to combat rhabdovirus infections” (Eur J Med Chem, 2025).
Calls of active or inactive are those of the source. The calls are words filed in the database; no cut-off is given here.

Experiments:
[1] = tested on: Infectious hematopoietic necrosis virus; test: Antiviral activity against IHNV infected in EPC cells (unknown origin) assessed as inhibition of viral G gene expression measured after 72 hrs by RT-qPCR analysis; format: functional, organism-based; conditions: dose 0.1-100 µM
[2] = tested on: Infectious hematopoietic necrosis virus; test: Antiviral activity against IHNV infected in juvenile rainbow trout assessed as decrease in viral titer in donor fishes on horizontal transmission between virus-infected donor fishes and non-infected recipient fishes at 25 uM immersed together in compound for 48 hrs; format: functional, organism-based
[3] = tested on: Infectious hematopoietic necrosis virus; test: Antiviral activity against IHNV infected in EPC cells (unknown origin) assessed as smooth outer membrane in mitochondria by TEM analysis; format: functional, organism-based
[4] = tested on: Infectious hematopoietic necrosis virus; test: Antiviral activity against IHNV infected in EPC cells (unknown origin) assessed as reduction in cytopathic effect at 25 uM pretreated virus with compound for 1 to 2 hrs followed by compound-treated virus infection in EPC cells measured after 72 hrs by RT-qPCR analysis; format: functional, organism-based; conditions: time 1-2 hrs
[5] = tested on: Infectious hematopoietic necrosis virus; test: Antiviral activity against IHNV infected in EPC cells (unknown origin) assessed as inhibition of viral M gene expression measured after 72 hrs by RT-qPCR analysis; format: functional, organism-based; conditions: dose 0.1-100 µM
[6] = tested on: Infectious hematopoietic necrosis virus; test: Antiviral activity against IHNV infected in juvenile rainbow trout assessed as decrease in viral G gene expression in kidney administered intraperitoneally measured after 1 to 4 days by RT-qPCR analysis; format: functional, organism-based; conditions: route ip, time 1-4 day
[7] = tested on: Infectious hematopoietic necrosis virus; test: Antiviral activity against IHNV infected in EPC cells (unknown origin) assessed as unchanged morphology in host cells at 25 uM pretreated virus with compound for 4 hrs followed by compound-treated virus infection in EPC cells measured after 72 hrs by microscopic analysis; format: functional, organism-based
[8] = tested on: Infectious hematopoietic necrosis virus; test: Antiviral activity against IHNV infected in juvenile rainbow trout assessed as increase in IFN-1 gene expression in kidney administered intraperitoneally measured after 2 days by RT-qPCR analysis; format: functional, organism-based; conditions: route ip, time 2.0 day
[9] = tested on: Infectious hematopoietic necrosis virus; test: Antiviral activity against IHNV infected in EPC cells (unknown origin) assessed as reduction in viral G protein expression at 25 uM pretreated virus with compound for 4 hrs followed by compound-treated virus infection in EPC cells measured after 72 hrs by RT-qPCR analysis relative to control; format: functional; design: scale not given: the % may be the effect or the level left
[10] = tested on: Infectious hematopoietic necrosis virus; test: Antiviral activity against IHNV infected in juvenile rainbow trout assessed as decrease in hemorrhage in spleen administered intraperitoneally measured after 2 days by H and E staining based analysis; format: functional, organism-based; conditions: route ip, time 2.0 day
[11] = tested on: Infectious hematopoietic necrosis virus; test: Antiviral activity against IHNV infected in juvenile rainbow trout assessed as increase in IFN-1 gene expression in spleen administered intraperitoneally measured after 2 days by RT-qPCR analysis; format: functional, organism-based; conditions: route ip, time 2.0 day
[12] = tested on: Infectious hematopoietic necrosis virus; test: Antiviral activity against IHNV infected in EPC cells (unknown origin) assessed as reduction in viral load for internalization at 25 uM incubated for 1 hr at 4 degreeC followed by 2 hrs of incubation at 25 degreeC by RT-qPCR analysis relative to control; format: functional; design: scale not given: the % may be the effect or the level left; conditions: time 3 hrs
[13] = tested on: Infectious hematopoietic necrosis virus; test: Antiviral activity against IHNV infected in EPC cells (unknown origin) assessed as inhibition of viral M gene expression at 25 uM measured after 72 hrs by RT-qPCR analysis relative to control; format: functional
[14] = tested on: Infectious hematopoietic necrosis virus; test: Antiviral activity against IHNV infected in juvenile rainbow trout assessed as increase in IRF3 gene expression in spleen administered intraperitoneally measured after 2 days by RT-qPCR analysis; format: functional, organism-based; conditions: route ip, time 2.0 day
[15] = tested on: Infectious hematopoietic necrosis virus; test: Antiviral activity against IHNV infected in juvenile rainbow trout assessed as decrease in viral G gene expression in spleen of recipient fishes on horizontal transmission between virus-infected donor fishes and non-infected recipient fishes at 25 uM immersed together in compound for 48 hrs by qPCR analysis; format: functional, organism-based
[16] = tested on: Infectious hematopoietic necrosis virus; test: Antiviral activity against IHNV infected in EPC cells (unknown origin) assessed as uniform shaped nuclei at 25 uM measured after 72 hrs by fluorescence microscopy; format: functional, organism-based
[17] = tested on: Infectious hematopoietic necrosis virus; test: Antiviral activity against IHNV infected in EPC cells (unknown origin) assessed as reduction in virus-induced disruption of mitochondrial membrane potential at 25 uM incubated for 72 hrs by JC-1 dye based analysis; format: functional, organism-based
[18] = tested on: Infectious hematopoietic necrosis virus; test: Antiviral activity against IHNV infected in EPC cells (unknown origin) assessed as formation of tubular structures by cristae by TEM analysis; format: functional, organism-based
[19] = tested on: Infectious hematopoietic necrosis virus; test: Antiviral activity against IHNV infected in EPC cells (unknown origin) assessed as uniform sized nuclei at 25 uM measured after 72 hrs by fluorescence microscopy; format: functional, organism-based
[20] = tested on: Infectious hematopoietic necrosis virus; test: Antiviral activity against IHNV infected in EPC cells (unknown origin) assessed as inhibition of viral replication at 25 uM preincubated for 24 hrs followed by viral infection measured after 72 hrs by RT-qPCR analysis; format: functional, organism-based; conditions: time 96.0 hrs
[21] = tested on: Infectious hematopoietic necrosis virus; test: Antiviral activity against IHNV infected in juvenile rainbow trout assessed as increase in ISG15 gene expression in kidney administered intraperitoneally measured after 2 days by RT-qPCR analysis; format: functional, organism-based; conditions: route ip, time 2.0 day
[22] = tested on: Infectious hematopoietic necrosis virus; test: Antiviral activity against IHNV infected in juvenile rainbow trout assessed as increase in Mx1 gene expression in spleen administered intraperitoneally measured after 2 days by RT-qPCR analysis; format: functional, organism-based; conditions: route ip, time 2.0 day
[23] = tested on: Infectious hematopoietic necrosis virus; test: Antiviral activity against IHNV infected in EPC cells (unknown origin) assessed as inhibition of viral G gene expression at 25 uM measured after 72 hrs by RT-qPCR analysis relative to control; format: functional
[24] = tested on: Infectious hematopoietic necrosis virus; test: Antiviral activity against IHNV infected in EPC cells (unknown origin) assessed as mtDNA intact with mitochondria at 25 uM incubated for 72 hrs by TOMM20 dye based analysis; format: functional, organism-based
[25] = tested on: Infectious hematopoietic necrosis virus; test: Antiviral activity against IHNV infected in EPC cells (unknown origin) assessed as inhibition of viral replication at 25 uM pre-infected with virus for 6 hrs followed by compound addition measured after 72 hrs by RT-qPCR analysis relative to control; format: functional
[26] = tested on: Infectious hematopoietic necrosis virus; test: Antiviral activity against IHNV infected in EPC cells (unknown origin) assessed as reduction in viral G protein expression at 25 uM pretreated virus with compound for 1 hr followed by compound-treated virus infection in EPC cells measured after 72 hrs by RT-qPCR analysis relative to control; format: functional; design: scale not given: the % may be the effect or the level left
[27] = tested on: Infectious hematopoietic necrosis virus; test: Antiviral activity against IHNV infected in EPC cells (unknown origin) assessed as dense monolayer arrangement in host cells at 25 uM pretreated virus with compound for 4 hrs followed by compound-treated virus infection in EPC cells measured after 72 hrs by microscopic analysis; format: functional, organism-based
[28] = tested on: Infectious hematopoietic necrosis virus; test: Antiviral activity against IHNV infected in EPC cells (unknown origin) assessed as reversal of chromatin condensation at 25 uM measured after 72 hrs by fluorescence microscopy; format: functional, organism-based
[29] = tested on: Infectious hematopoietic necrosis virus; test: Antiviral activity against IHNV infected in EPC cells (unknown origin) assessed as viral titer measured per 0.1 ml incubated for 48 hrs by Reed-Muench method (reference value: 1 10^5.75TCID50); format: functional
[30] = tested on: Infectious hematopoietic necrosis virus; test: Antiviral activity against IHNV infected in EPC cells (unknown origin) assessed as reduction in viral G protein expression at 25 uM pretreated virus with compound for 2 hrs followed by compound-treated virus infection in EPC cells measured after 72 hrs by RT-qPCR analysis relative to control; format: functional; design: scale not given: the % may be the effect or the level left

COc1ccc(C[C@H]2COC(=O)[C@@H]2Cc2ccc(OCCCCCCCCn3cncn3)c(OC)c2)cc1OC
inhibition [1]: Dose-dependent-effect | Activity [2]: Active | Activity [3]: Active | Activity [4]: Active | inhibition [5]: Dose-dependent-effect | Activity [6]: Active | Activity [7]: Active | Activity [8]: Active | Activity [9]: 67% | Activity [10]: Active | Activity [11]: Active | Activity [12]: 46% | inhibition at 25 µM [13]: > 90% | Activity [14]: Active | Activity [15]: Active | Activity [16]: Active | Activity [17]: Active | Activity [18]: Active; The Cristae Formed Tubular Structures, With The Inter-Membrane Space Forming The Mitochondrial Outer Chamber And Connecting Cristae Inner Spaces | Activity [19]: Active | inhibition [20]: Active | Activity [21]: Active | Activity [22]: Active | inhibition at 25 µM [23]: > 90% | Activity [24]: Active | inhibition at 25 µM [25]: 80% | Activity [26]: 10% | Activity [27]: Active | Activity [28]: Active | Activity [29]: 1 10^2.45TCID50 | Activity [30]: 24%
